Measurements reported in US11077090B2, “Compounds and compositions and uses thereof” (Sunovion Pharmaceuticals Inc., priority 2016, dated 2021).

Tested on: compound-treated mice
Experiment: Neuropharmacological assay (SmartCube): behavioral activity signature and minimal effective dose
Assay type: in vivo
Conditions: Mus musculus, ip, MED = dose having 50% or more total activity, read-out: Potency: minimal effective dose (MED)
How it was run: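 Video-recorded behavior is compared algorithmically against a reference-compound database, yielding class probabilities (best dose reported). Compounds given i.p. in NMP/PEG/propylene glycol 15 min pre-test at 3 doses; potency as MED, the dose (mpk, range usually 0.3–30) reaching ≥50% total activity.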

Row | SMILES | minimal effective dose [mg/kg]
1 | NC1COCc2ccc(F)cc21 (stereo not drawn) [Example 6] | 3 to 10
2 | Cl.NC1COCc2ccc(-c3ccccc3)cc21 (stereo not drawn) [Example 7, 6-Phenylisochroman-4-amine hydrochloride] | 10 to 30
3 | CC(C)c1ccc2c(c1)C(N)COC2.Cl (stereo not drawn) [Example 8, 6-Isopropylisochroman-4-amine hydrochloride] | 10 to 30
4 | Cl.NC1COCc2ccc(C(F)(F)F)cc21 (stereo not drawn) [Example 9, 6-Trifluoromethylisochroman-4-amine hydrochloride] | 3 to 10
5 | COc1ccc2c(c1)C(N)COC2.Cl (stereo not drawn) [Example 10, 6-Methoxyisochroman-4-amine hydrochloride] | 3 to 10
6 | CC(C)(C)c1ccc2c(c1)C(N)COC2.Cl (stereo not drawn) [Example 11] | 10 to 30
7 | Cl.NC1COCc2ccccc21 (stereo not drawn) [Example 12] | 10 to 30
8 | Cl.NC1COCc2ccc3ccccc3c21 (stereo not drawn) [Example 13] | 3 to 10
9 | COc1ccc2c(c1)COCC2N.Cl (stereo not drawn) [Example 14] | 10 to 30
10 | Cl.NC1COCc2ccc3ncccc3c21 (stereo not drawn) [Example 15] | > 30
11 | Cc1nc2c3c(ccc2s1)COCC3N.Cl (stereo not drawn) [Example 16] | 10 to 30
12 | CCc1cccc2c1COCC2N.Cl (stereo not drawn) [Example 17, 8-Ethylisochroman-4-amine hydrochloride] | 10 to 30
13 | CC(C)c1cccc2c1COCC2N.Cl (stereo not drawn) [Example 18, 8-Isopropylisochroman-4-amine hydrochloride] | 10 to 30
14 | Cl.NC1COCc2ccc3c(c21)CCCC3 (stereo not drawn) [Example 19, 2,4,7,8,9,10-Hexahydro-1H-benzo[f]isochromen-1-amine hydrochloride] | 10 to 30
15 | CCc1ccc2c(c1)C(N)COC2.Cl (stereo not drawn) [Example 20, 6-Ethylisochroman-4-amine hydrochloride] | 3 to 10

Same assay, conditions: i.p. 15 min before test, most efficacious dose(s)

Row | SMILES | AD: ADHD (probability of activity signature) | AG: analgesic (probability of activity signature) | AX: anxiolytic (probability of activity signature) | CE: cognitive enhancer (probability of activity signature) | DP: anti-depressant (probability of activity signature) | MS: mood stabilizer (probability of activity signature) | PS: anti-psychotic (probability of activity signature) | SD: sedative hypnotic (probability of activity signature) | UN: uncharacterized CNS activity (probability of activity signature)
16 | NC1COCc2ccc(F)cc21 (stereo not drawn) [Example 6] | + (LOQ ≤ + <5%) | ++ (5% ≤ ++ <25%) | ++ (5% ≤ ++ <25%) | + (LOQ ≤ + <5%) | ++ (5% ≤ ++ <25%) | + (LOQ ≤ + <5%) | + (LOQ ≤ + <5%) | ++ (5% ≤ ++ <25%) | ++++ (50% ≤ ++++)
17 | Cl.NC1COCc2ccc(-c3ccccc3)cc21 (stereo not drawn) [Example 7, 6-Phenylisochroman-4-amine hydrochloride] | + (LOQ ≤ + <5%) | + (LOQ ≤ + <5%) | ++ (5% ≤ ++ <25%) | ++ (5% ≤ ++ <25%) | ++ (5% ≤ ++ <25%) | ++ (5% ≤ ++ <25%) | ++ (5% ≤ ++ <25%) | + (LOQ ≤ + <5%) | +++ (25% ≤ +++ <50%)
18 | CC(C)c1ccc2c(c1)C(N)COC2.Cl (stereo not drawn) [Example 8, 6-Isopropylisochroman-4-amine hydrochloride] | + (LOQ ≤ + <5%) | ++ (5% ≤ ++ <25%) | ++ (5% ≤ ++ <25%) | ++ (5% ≤ ++ <25%) | ++ (5% ≤ ++ <25%) | + (LOQ ≤ + <5%) | ++ (5% ≤ ++ <25%) | +++ (25% ≤ +++ <50%) | ++ (5% ≤ ++ <25%)
19 | Cl.NC1COCc2ccc(C(F)(F)F)cc21 (stereo not drawn) [Example 9, 6-Trifluoromethylisochroman-4-amine hydrochloride] | + (LOQ ≤ + <5%) | ++ (5% ≤ ++ <25%) | ++ (5% ≤ ++ <25%) | ++ (5% ≤ ++ <25%) | ++ (5% ≤ ++ <25%) | + (LOQ ≤ + <5%) | ++ (5% ≤ ++ <25%) | + (LOQ ≤ + <5%) | +++ (25% ≤ +++ <50%)
20 | COc1ccc2c(c1)C(N)COC2.Cl (stereo not drawn) [Example 10, 6-Methoxyisochroman-4-amine hydrochloride] | + (LOQ ≤ + <5%) | ++ (5% ≤ ++ <25%) | ++ (5% ≤ ++ <25%) | +++ (25% ≤ +++ <50%) | ++ (5% ≤ ++ <25%) | + (LOQ ≤ + <5%) | +++ (25% ≤ +++ <50%) | ++ (5% ≤ ++ <25%) | ++ (5% ≤ ++ <25%)
21 | CC(C)(C)c1ccc2c(c1)C(N)COC2.Cl (stereo not drawn) [Example 11] | + (LOQ ≤ + <5%) | + (LOQ ≤ + <5%) | + (LOQ ≤ + <5%) | ++ (5% ≤ ++ <25%) | ++ (5% ≤ ++ <25%) | + (LOQ ≤ + <5%) | + (LOQ ≤ + <5%) | ++ (5% ≤ ++ <25%) | + (LOQ ≤ + <5%)
22 | Cl.NC1COCc2ccccc21 (stereo not drawn) [Example 12] | + (LOQ ≤ + <5%) | ++ (5% ≤ ++ <25%) | ++ (5% ≤ ++ <25%) | ++ (5% ≤ ++ <25%) | ++ (5% ≤ ++ <25%) | + (LOQ ≤ + <5%) | ++ (5% ≤ ++ <25%) | + (LOQ ≤ + <5%) | +++ (25% ≤ +++ <50%)
23 | Cl.NC1COCc2ccc3ccccc3c21 (stereo not drawn) [Example 13] | + (LOQ ≤ + <5%) | ++ (5% ≤ ++ <25%) | ++ (5% ≤ ++ <25%) | ++ (5% ≤ ++ <25%) | ++ (5% ≤ ++ <25%) | + (LOQ ≤ + <5%) | ++ (5% ≤ ++ <25%) | + (LOQ ≤ + <5%) | ++++ (50% ≤ ++++)
24 | COc1ccc2c(c1)COCC2N.Cl (stereo not drawn) [Example 14] | + (LOQ ≤ + <5%) | ++ (5% ≤ ++ <25%) | ++ (5% ≤ ++ <25%) | + (LOQ ≤ + <5%) | ++ (5% ≤ ++ <25%) | + (LOQ ≤ + <5%) | + (LOQ ≤ + <5%) | + (LOQ ≤ + <5%) | ++++ (50% ≤ ++++)
25 | Cl.NC1COCc2ccc3ncccc3c21 (stereo not drawn) [Example 15] | + (LOQ ≤ + <5%) | + (LOQ ≤ + <5%) | + (LOQ ≤ + <5%) | + (LOQ ≤ + <5%) | + (LOQ ≤ + <5%) | + (LOQ ≤ + <5%) | + (LOQ ≤ + <5%) | + (LOQ ≤ + <5%) | + (LOQ ≤ + <5%)
26 | Cc1nc2c3c(ccc2s1)COCC3N.Cl (stereo not drawn) [Example 16] | + (LOQ ≤ + <5%) | ++ (5% ≤ ++ <25%) | +++ (25% ≤ +++ <50%) | ++ (5% ≤ ++ <25%) | + (LOQ ≤ + <5%) | + (LOQ ≤ + <5%) | ++ (5% ≤ ++ <25%) | + (LOQ ≤ + <5%) | +++ (25% ≤ +++ <50%)
27 | CCc1cccc2c1COCC2N.Cl (stereo not drawn) [Example 17, 8-Ethylisochroman-4-amine hydrochloride] | + (LOQ ≤ + <5%) | ++ (5% ≤ ++ <25%) | +++ (25% ≤ +++ <50%) | ++ (5% ≤ ++ <25%) | ++ (5% ≤ ++ <25%) | + (LOQ ≤ + <5%) | ++ (5% ≤ ++ <25%) | + (LOQ ≤ + <5%) | +++ (25% ≤ +++ <50%)
28 | CC(C)c1cccc2c1COCC2N.Cl (stereo not drawn) [Example 18, 8-Isopropylisochroman-4-amine hydrochloride] | + (LOQ ≤ + <5%) | +++ (25% ≤ +++ <50%) | ++ (5% ≤ ++ <25%) | ++ (5% ≤ ++ <25%) | ++ (5% ≤ ++ <25%) | + (LOQ ≤ + <5%) | ++ (5% ≤ ++ <25%) | ++ (5% ≤ ++ <25%) | + (LOQ ≤ + <5%)
29 | Cl.NC1COCc2ccc3c(c21)CCCC3 (stereo not drawn) [Example 19, 2,4,7,8,9,10-Hexahydro-1H-benzo[f]isochromen-1-amine hydrochloride] | + (LOQ ≤ + <5%) | ++ (5% ≤ ++ <25%) | +++ (25% ≤ +++ <50%) | ++ (5% ≤ ++ <25%) | + (LOQ ≤ + <5%) | + (LOQ ≤ + <5%) | ++ (5% ≤ ++ <25%) | ++ (5% ≤ ++ <25%) | +++ (25% ≤ +++ <50%)
30 | CCc1ccc2c(c1)C(N)COC2.Cl (stereo not drawn) [Example 20, 6-Ethylisochroman-4-amine hydrochloride] | + (LOQ ≤ + <5%) | ++ (5% ≤ ++ <25%) | +++ (25% ≤ +++ <50%) | ++ (5% ≤ ++ <25%) | ++ (5% ≤ ++ <25%) | + (LOQ ≤ + <5%) | +++ (25% ≤ +++ <50%) | ++ (5% ≤ ++ <25%) | ++ (5% ≤ ++ <25%)
